Reference: PMC7377239, “Cardiovascular Effects of Polychlorinated Biphenyls and Their Major Metabolites” (Environmental Health Perspectives, 2020)
Counter-ions that a name gives are not always drawn. Like-named read-outs stand apart in the source and are kept apart here.

What was measured:
HUVECs = assay: High-content imaging cytotoxicity in HUVECs, 24 h; assay type: cell-based, human; details: Homo sapiens, HUVEC, 24 h, HUVECs; for viability at 0.01 µM / activity at 0.01 µM / viability at 0.1 µM / activity at 0.1 µM / viability at 1 µM / activity at 1 µM / viability at 10 µM / activity at 10 µM / viability at 100 µM / activity at 100 µM: 0.00 µM = 100.00; for viability at 0.1 µM / activity at 0.1 µM: 0.10 µM; for minimal effective concentration: top concentration 100.00 µM
Procedure, shortened: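 Point-of-departure values come from four-parameter logistic fits of vehicle-normalized (0.5% DMSO) imaging readouts, cutoff one SD of vehicle means, 100μM where no concentration–response. Cells: HUVEC monolayers, passages 1–5, treated 24 h at 37°C, 5% CO2, then Hoechst 33342/MitoTracker Orange/calcein AM stained, imaged at 10×.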

[1] = tested on: iCell endothelial cells (human iPSC-derived ECs); assay: High-content imaging cytotoxicity in iCell endothelial cells, 24 h; assay type: cell-based; details: Homo sapiens, Endothelial cell, iPSC-EC, 24 hr; for viability at 0.1 µM / activity at 0.1 µM: 0.10 µM; for minimal effective concentration: top concentration 100.00 µM
Procedure, shortened: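 Readouts were vehicle-normalised and fitted to a four-parameter logistic model. POD was set at one SD beyond 0.5% DMSO control means, and 100 µM was assigned when no response was seen. Cells were monolayers of iCell endothelial cells imaged after 24 h compound exposure using nuclear, mitochondrial and calcein dyes.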

[2] = 24 hr, read-out: huvec.cyto.24hr
[3] = 24 hr, read-out: huvec.mito.24hr
[4] = 24 hr, read-out: huvec.mitoint.24hr
[5] = 24 hr, read-out: huvec.nma.24hr
[6] = 24 hrs, read-out: huvec.tc.24hrs
[7] = 0.00 µM control = 100.00, read-out: endo.cyto.24hr
[8] = 0.00 µM control = 100.00, read-out: endo.mito.24hr
[9] = 0.00 µM control = 100.00, read-out: endo.mitoint.24hr
[10] = 0.00 µM control = 100.00, read-out: endo.nma.24hr
[11] = 0.00 µM control = 100.00, read-out: endo.tc.24hrs

O=S(=O)(O)Oc1cccc(-c2ccc(Cl)cc2)c1 [3'-yl PCB 3 sulfate]
viability at 0.01 µM (HUVECs; [2]): 96%
activity at 0.01 µM (HUVECs; [3]): 95.2%
activity at 0.01 µM (HUVECs; [4]): 93.5%
activity at 0.01 µM (HUVECs; [5]): 100%
viability at 0.1 µM (HUVECs; [2]): 97%
activity at 0.1 µM (HUVECs; [3]): 97.2%
activity at 0.1 µM (HUVECs; [4]): 105%
activity at 0.1 µM (HUVECs; [5]): 101%
viability at 1 µM (HUVECs; [2]): 92.7%
activity at 1 µM (HUVECs; [3]): 92.1%
activity at 1 µM (HUVECs; [4]): 104%
activity at 1 µM (HUVECs; [5]): 101%
viability at 10 µM (HUVECs; [2]): 119%
activity at 10 µM (HUVECs; [3]): 118%
activity at 10 µM (HUVECs; [4]): 89.3%
activity at 10 µM (HUVECs; [5]): 92.6%
viability at 100 µM (HUVECs; [2]): 88%
activity at 100 µM (HUVECs; [3]): 87.5%
activity at 100 µM (HUVECs; [4]): 102%
activity at 100 µM (HUVECs; [5]): 94.9%
minimal effective concentration (HUVECs; 24 hr, read-out: huvec.cyto.24hr POD): 100 µM
minimal effective concentration (HUVECs; 24 hr, read-out: huvec.mito.24hr POD): 100 µM
minimal effective concentration (HUVECs; 24 hr, read-out: huvec.mitoint.24hr POD): 100 µM
minimal effective concentration (HUVECs; 24 hr, read-out: huvec.nma.24hr POD): 100 µM
viability at 0.01 µM (HUVECs; [6]): 96%
viability at 0.1 µM (HUVECs; [6]): 97.1%
viability at 1 µM (HUVECs; [6]): 92.7%
viability at 10 µM (HUVECs; [6]): 119%
viability at 100 µM (HUVECs; [6]): 88.2%
minimal effective concentration (HUVECs; 24 hrs, read-out: huvec.tc.24hrs POD): 100 µM
viability at 0.01 µM [1, 7]: 101%
activity at 0.01 µM [1, 8]: 101%
activity at 0.01 µM [1, 9]: 106%
activity at 0.01 µM [1, 10]: 99.3%
viability at 0.01 µM [1, 11]: 101%
viability at 0.1 µM [1, 7]: 93.7%
activity at 0.1 µM [1, 8]: 93.7%
activity at 0.1 µM [1, 9]: 105%
activity at 0.1 µM [1, 10]: 103%
viability at 0.1 µM [1, 11]: 93.7%
viability at 1 µM [1, 7]: 97.2%
activity at 1 µM [1, 8]: 97.2%
activity at 1 µM [1, 9]: 105%
activity at 1 µM [1, 10]: 102%
viability at 1 µM [1, 11]: 97.2%
viability at 10 µM [1, 7]: 98.7%
activity at 10 µM [1, 8]: 98.8%
activity at 10 µM [1, 9]: 111%
activity at 10 µM [1, 10]: 99.5%
viability at 10 µM [1, 11]: 98.7%
viability at 100 µM [1, 7]: 98.5%
activity at 100 µM [1, 8]: 98.5%
activity at 100 µM [1, 9]: 103%
activity at 100 µM [1, 10]: 97.4%
viability at 100 µM [1, 11]: 98.5%
minimal effective concentration ([1]; read-out: endo.cyto.24hr POD): 100 µM
minimal effective concentration ([1]; read-out: endo.mito.24hr POD): 100 µM
minimal effective concentration ([1]; read-out: endo.mitoint.24hr POD): 100 µM
minimal effective concentration ([1]; read-out: endo.nma.24hr POD): 100 µM
minimal effective concentration ([1]; read-out: endo.tc.24hrs POD): 100 µM
